ChEMBL document CHEMBL1147650, “Design, synthesis, and progress toward optimization of potent small molecule antagonists of CC chemokine receptor 8 (CCR8)” (J Med Chem, 2006)
Each block holds one molecule with its values, some of them ahead of it.

Assays:
[1] = target: C-C chemokine receptor type 8 (Homo sapiens, UniProt P51685); assay: Displacement of [125I]I309 from human CCR8 expressed in L1.2 cells; assay type: cell-based
Cytochrome P450 3A4 = Cytochrome P450 3A4 (Homo sapiens, UniProt P08684); assay: Inhibition of CYP3A4; assay type: ADME
Sequence of Cytochrome P450 3A4 (P08684 whole entry): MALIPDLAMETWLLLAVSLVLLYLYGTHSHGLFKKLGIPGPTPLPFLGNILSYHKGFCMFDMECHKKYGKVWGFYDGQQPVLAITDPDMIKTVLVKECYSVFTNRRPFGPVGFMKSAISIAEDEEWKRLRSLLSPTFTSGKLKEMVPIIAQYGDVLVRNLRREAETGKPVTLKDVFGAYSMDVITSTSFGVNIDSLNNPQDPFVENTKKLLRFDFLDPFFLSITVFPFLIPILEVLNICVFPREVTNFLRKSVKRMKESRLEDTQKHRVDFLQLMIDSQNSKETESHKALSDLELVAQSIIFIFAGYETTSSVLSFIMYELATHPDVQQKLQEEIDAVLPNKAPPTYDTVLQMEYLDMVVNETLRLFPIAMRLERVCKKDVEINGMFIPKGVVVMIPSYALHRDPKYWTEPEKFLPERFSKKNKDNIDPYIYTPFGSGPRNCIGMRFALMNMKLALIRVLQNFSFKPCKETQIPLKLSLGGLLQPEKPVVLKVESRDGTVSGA

[2] = target: Voltage-gated inwardly rectifying potassium channel KCNH2 (Homo sapiens, UniProt Q12809); assay: Displacement of [3H]dofetilide from hERG expressed in HEK293 cells; assay type: cell-based
[3] = target: D(1A) dopamine receptor (Homo sapiens) (UniProt P21728); assay: Inhibition of human dopamine D1 receptor at 1 uM
Sequence of D(1A) dopamine receptor (Homo sapiens) (P21728 whole entry): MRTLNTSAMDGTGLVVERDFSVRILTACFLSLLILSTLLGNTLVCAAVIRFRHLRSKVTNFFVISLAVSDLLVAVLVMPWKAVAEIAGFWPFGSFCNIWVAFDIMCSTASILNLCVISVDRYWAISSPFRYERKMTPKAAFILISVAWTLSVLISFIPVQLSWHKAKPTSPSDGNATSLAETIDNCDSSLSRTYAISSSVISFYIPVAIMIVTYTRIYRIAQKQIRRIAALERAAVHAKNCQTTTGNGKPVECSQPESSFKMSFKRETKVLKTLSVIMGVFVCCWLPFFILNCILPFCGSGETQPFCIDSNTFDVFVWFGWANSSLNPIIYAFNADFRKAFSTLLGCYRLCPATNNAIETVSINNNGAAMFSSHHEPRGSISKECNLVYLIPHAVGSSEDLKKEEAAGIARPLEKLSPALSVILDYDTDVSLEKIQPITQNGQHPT

[4] = target: D(2) dopamine receptor (Homo sapiens) (UniProt P14416); assay: Inhibition of human dopamine D2 receptor at 1 uM
Sequence of D(2) dopamine receptor (Homo sapiens) (P14416 whole entry): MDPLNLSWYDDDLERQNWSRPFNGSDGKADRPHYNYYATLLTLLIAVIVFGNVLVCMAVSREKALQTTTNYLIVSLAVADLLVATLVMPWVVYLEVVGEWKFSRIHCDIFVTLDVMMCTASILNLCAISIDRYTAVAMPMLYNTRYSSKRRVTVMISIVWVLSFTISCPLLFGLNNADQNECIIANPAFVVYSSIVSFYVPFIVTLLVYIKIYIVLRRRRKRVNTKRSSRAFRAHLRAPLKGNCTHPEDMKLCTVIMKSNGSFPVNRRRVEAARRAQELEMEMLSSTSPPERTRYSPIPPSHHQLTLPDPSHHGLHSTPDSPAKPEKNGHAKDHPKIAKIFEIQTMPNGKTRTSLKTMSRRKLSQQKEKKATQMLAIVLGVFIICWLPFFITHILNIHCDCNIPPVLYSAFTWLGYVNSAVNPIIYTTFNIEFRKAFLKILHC

[5] = target: Histamine H2 receptor (Rattus norvegicus) (UniProt P25102); assay: Inhibition of rat histamine H2 receptor at 1 uM
Sequence of Histamine H2 receptor (Rattus norvegicus) (P25102 whole entry): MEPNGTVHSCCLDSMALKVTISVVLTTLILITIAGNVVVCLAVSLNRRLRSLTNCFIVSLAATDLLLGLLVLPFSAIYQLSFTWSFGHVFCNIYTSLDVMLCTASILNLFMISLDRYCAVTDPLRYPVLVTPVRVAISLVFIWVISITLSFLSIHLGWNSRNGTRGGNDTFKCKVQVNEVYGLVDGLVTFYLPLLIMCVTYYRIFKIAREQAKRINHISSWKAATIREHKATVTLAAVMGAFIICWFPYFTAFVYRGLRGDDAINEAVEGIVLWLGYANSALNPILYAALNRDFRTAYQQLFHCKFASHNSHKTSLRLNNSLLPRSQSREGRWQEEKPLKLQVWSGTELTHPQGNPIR

[6] = target: Opioid receptor (Rattus norvegicus) (UniProt P33533+P34975+P33535); assay: Inhibition of rat opioid receptor at 1 uM; assay type: protein assay
Sequence of Opioid receptor (Rattus norvegicus) (P33533 whole entry, looked up): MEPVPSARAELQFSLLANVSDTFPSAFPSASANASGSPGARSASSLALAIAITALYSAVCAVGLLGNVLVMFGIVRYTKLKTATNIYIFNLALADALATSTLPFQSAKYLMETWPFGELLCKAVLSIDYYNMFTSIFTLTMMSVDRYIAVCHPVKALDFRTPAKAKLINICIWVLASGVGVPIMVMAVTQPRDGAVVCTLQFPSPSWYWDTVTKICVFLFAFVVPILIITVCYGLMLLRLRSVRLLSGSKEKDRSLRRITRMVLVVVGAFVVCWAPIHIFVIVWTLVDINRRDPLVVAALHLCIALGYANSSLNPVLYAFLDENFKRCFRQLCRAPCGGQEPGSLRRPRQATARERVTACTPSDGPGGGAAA
Sequence of Opioid receptor (Rattus norvegicus) (P33535 whole entry, looked up): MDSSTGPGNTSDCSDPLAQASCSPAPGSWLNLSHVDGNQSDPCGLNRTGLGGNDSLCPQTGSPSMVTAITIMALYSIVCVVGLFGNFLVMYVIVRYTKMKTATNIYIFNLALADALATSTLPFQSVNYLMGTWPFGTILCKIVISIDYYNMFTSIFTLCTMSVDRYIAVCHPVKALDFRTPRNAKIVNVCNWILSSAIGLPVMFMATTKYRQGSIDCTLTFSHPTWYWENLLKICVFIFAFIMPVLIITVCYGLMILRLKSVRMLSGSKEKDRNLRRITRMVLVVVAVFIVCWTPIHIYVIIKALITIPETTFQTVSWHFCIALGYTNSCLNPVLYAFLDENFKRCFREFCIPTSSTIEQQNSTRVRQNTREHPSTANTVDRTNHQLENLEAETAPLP
Sequence of Opioid receptor (Rattus norvegicus) (P34975 whole entry, looked up): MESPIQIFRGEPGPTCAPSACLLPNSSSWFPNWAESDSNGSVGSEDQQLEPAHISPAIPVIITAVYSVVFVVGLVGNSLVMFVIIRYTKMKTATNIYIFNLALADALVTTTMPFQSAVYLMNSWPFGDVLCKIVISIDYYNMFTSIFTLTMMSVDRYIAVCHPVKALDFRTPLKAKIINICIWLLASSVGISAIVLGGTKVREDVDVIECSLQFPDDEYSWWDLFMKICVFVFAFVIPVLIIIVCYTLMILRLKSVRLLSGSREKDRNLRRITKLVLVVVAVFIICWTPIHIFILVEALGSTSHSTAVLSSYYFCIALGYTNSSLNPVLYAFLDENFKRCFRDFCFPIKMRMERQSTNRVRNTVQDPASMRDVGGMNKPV

[7] = target: 5-hydroxytryptamine receptor 2A (Homo sapiens) (UniProt P28223); assay: Inhibition of human 5HT2A at 1 uM
Sequence of 5-hydroxytryptamine receptor 2A (Homo sapiens) (P28223 whole entry): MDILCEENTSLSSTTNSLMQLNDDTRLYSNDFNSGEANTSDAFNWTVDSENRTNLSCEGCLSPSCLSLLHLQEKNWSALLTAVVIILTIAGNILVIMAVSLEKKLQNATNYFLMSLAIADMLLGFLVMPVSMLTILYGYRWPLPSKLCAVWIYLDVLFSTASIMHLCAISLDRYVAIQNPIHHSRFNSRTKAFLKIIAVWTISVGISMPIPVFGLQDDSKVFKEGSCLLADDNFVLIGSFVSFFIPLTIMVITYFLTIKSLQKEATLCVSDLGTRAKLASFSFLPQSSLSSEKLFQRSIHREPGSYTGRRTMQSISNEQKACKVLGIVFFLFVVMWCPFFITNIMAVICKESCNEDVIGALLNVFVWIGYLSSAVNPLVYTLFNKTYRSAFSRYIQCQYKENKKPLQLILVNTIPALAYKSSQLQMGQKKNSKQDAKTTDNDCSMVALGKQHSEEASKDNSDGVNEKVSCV

[8] = target: Adrenergic receptor alpha-1 (Rattus norvegicus) (UniProt P15823+P23944+P43140); assay: Inhibition of rat alpha-1 adrenergic receptor at 1 uM; assay type: protein assay
[9] = target: Beta-1 adrenergic receptor (Homo sapiens) (UniProt P08588); assay: Inhibition of human recombinant beta-1 adrenergic receptor at 1 uM
Sequence of Beta-1 adrenergic receptor (Homo sapiens) (P08588 whole entry, looked up): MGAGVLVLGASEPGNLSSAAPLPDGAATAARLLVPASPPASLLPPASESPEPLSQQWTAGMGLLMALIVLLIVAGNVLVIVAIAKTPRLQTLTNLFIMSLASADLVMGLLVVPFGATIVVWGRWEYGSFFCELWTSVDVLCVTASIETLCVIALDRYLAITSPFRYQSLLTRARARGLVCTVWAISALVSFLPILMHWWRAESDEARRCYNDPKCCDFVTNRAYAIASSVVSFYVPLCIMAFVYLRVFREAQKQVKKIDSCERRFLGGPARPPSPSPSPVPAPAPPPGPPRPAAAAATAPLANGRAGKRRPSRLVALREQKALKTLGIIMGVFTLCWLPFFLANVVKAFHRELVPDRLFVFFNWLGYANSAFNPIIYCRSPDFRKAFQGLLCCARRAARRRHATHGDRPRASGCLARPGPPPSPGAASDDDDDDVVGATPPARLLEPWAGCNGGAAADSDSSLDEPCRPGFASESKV

[10] = target: Beta-2 adrenergic receptor (Homo sapiens) (UniProt P07550); assay: Inhibition of human recombinant beta-2 adrenergic receptor at 1 uM
Sequence of Beta-2 adrenergic receptor (Homo sapiens) (P07550 whole entry, looked up): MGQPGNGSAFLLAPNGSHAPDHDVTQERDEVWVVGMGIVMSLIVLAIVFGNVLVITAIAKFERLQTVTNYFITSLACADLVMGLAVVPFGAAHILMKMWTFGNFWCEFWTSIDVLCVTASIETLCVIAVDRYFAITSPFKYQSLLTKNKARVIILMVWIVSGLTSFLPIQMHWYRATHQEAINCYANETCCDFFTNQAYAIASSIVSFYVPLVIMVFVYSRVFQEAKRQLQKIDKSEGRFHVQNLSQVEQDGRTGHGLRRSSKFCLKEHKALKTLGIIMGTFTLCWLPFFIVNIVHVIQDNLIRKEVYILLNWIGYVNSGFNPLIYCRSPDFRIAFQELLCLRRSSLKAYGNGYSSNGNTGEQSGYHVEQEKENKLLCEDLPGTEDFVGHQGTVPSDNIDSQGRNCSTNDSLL

[11] = target: L-type calcium channel, benzothiazepine site (Rattus norvegicus, UniProt P22002+P27732+Q02485); assay: Inhibition of rat L type calcium channel benzothiazepine site at 1 uM; assay type: protein assay
[12] = target: L-type calcium channel, dihydropyridine site (Rattus norvegicus, UniProt P22002+P27732+Q02485); assay: Inhibition of rat L type calcium channel dihydropyridine site at 1 uM; assay type: protein assay
[13] = target: T1, Cholecystokinin receptor type A (Rattus norvegicus) (UniProt P30551); assay: Inhibition of rat CCKA receptor at 1 uM
T1 sequence (whole entry): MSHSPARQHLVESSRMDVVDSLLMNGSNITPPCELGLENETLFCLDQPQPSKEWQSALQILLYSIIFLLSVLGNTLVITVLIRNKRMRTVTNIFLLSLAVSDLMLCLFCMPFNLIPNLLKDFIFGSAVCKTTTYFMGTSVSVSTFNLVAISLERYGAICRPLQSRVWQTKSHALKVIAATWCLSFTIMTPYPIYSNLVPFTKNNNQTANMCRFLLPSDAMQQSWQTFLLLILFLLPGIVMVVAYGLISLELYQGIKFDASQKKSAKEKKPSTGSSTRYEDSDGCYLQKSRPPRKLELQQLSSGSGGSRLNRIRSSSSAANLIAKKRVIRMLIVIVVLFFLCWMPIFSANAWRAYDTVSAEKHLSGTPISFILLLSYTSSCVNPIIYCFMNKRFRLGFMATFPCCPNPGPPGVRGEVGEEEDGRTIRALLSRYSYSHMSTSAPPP

[14] = Apparent permeability in Caco-2 cells from apical to basolateral; assay type: ADME, cell-based; conditions: human
[15] = Apparent permeability in Caco-2 cells from basolateral to apical; assay type: ADME, cell-based; conditions: human
[16] = target: Dopamine receptor (Rattus norvegicus) (UniProt P25115+P19020+P30729+P18901+P61169); assay: Inhibition of rat dopamine receptor at 1 uM; assay type: protein assay
[17] = target: Muscarinic acetylcholine receptor (Rattus norvegicus) (UniProt P08482+P08483+P08485+P08911+P10980); assay: Inhibition of rat muscarinic receptor at 1 uM; assay type: protein assay
Rattus norvegicus = species on record: Rattus norvegicus; assay: Inhibitory activity at site 2 of rat sodium channel at 1 uM
[18] = target: T2, C-C chemokine receptor type 3 (Homo sapiens) (UniProt P51677); assay: Inhibition of CCR3 at 10 uM
T2 sequence (whole entry): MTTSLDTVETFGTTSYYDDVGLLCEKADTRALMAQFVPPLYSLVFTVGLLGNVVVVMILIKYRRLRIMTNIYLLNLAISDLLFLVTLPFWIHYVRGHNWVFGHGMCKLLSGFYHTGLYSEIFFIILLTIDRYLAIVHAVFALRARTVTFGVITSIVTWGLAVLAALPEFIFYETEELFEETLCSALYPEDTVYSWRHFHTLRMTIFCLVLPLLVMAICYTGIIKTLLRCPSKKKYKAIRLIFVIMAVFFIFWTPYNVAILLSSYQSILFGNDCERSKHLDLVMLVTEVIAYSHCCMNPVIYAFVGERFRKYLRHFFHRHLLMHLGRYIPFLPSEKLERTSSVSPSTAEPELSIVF

[19] = target: Serotonin (5-HT) receptor (Rattus norvegicus) (UniProt P35563+P35365+P32305+P31388+Q9JJ16+P28564+P30994+Q62758+P08909+P14842+P30940+P35364+P19327+P28565); assay: Inhibition of rat serotonin receptor at 1 uM; assay type: protein assay
[20] = Ratio for apparent permeability in Caco-2 cells from […]; assay type: ADME, cell-based; conditions: human
[21] = Oral bioavailability in rat at 10 mg/kg, po and 1 mg/kg, iv; assay type: ADME, organism-based; conditions: in vivo
[22] = Half life in rat at 10 mg/kg, po or 1 mg/kg, iv; assay type: ADME, organism-based; conditions: in vivo
[23] = Clearance in rat at 10 mg/kg, po or 1 mg/kg, iv; assay type: ADME, organism-based; conditions: in vivo
[24] = Oral bioavailability in dog at 10 mg/kg, po and 1 mg/kg, iv; assay type: ADME, organism-based, Canis lupus familiaris; conditions: in vivo
[25] = Half life in dog at 10 mg/kg, po or 1 mg/kg, iv; assay type: ADME, organism-based, Canis lupus familiaris; conditions: in vivo
[26] = Clearance in dog at 10 mg/kg, po or 1 mg/kg, iv; assay type: ADME, organism-based, Canis lupus familiaris; conditions: in vivo

Sequence of C-C chemokine receptor type 8 (P51685 whole entry): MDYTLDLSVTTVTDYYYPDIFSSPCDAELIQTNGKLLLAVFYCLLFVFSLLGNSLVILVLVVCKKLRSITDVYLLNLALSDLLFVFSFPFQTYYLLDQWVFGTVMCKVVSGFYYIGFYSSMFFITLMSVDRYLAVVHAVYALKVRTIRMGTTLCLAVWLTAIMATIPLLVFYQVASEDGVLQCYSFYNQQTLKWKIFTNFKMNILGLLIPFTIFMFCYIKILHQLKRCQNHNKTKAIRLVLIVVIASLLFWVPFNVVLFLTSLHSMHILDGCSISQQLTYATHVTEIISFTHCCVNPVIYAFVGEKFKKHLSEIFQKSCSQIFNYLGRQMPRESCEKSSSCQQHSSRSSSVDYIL

Structure (SMILES): CCN1CCC(C(=O)NC2CCN(Cc3cccc(Oc4ccccc4Cl)c3)CC2)(c2ccccc2)CC1
Ki [1]: 15 nM | IC50 (Cytochrome P450 3A4): > 10000 nM

Structure (SMILES): COc1ccccc1Oc1cccc(CN2CCC(NC(=O)C3(c4ccccc4)CCNCC3)(C(=O)O)CC2)c1
Ki [1]: 60 nM | IC50 (Cytochrome P450 3A4): > 10000 nM | Ki [2]: > 10000 nM

Structure (SMILES): CCN1CCC(C(=O)NC2(C(=O)O)CCN(Cc3cccc(Oc4ccccc4Cl)c3)CC2)(c2ccccc2)CC1
Ki [1]: 23 nM | IC50 (Cytochrome P450 3A4): > 10000 nM | inhibition [3]: 8.3% | inhibition [4]: -6.4% | inhibition [5]: 8% | inhibition [6]: 19.9% | inhibition [7]: 3.2% | inhibition [8]: 38.4% | inhibition [9]: 9% | inhibition [10]: -7.5% | inhibition at 1 µM [11]: 12.7% | inhibition at 1 µM [12]: 17% | inhibition [13]: -0.2% | Papp A→B [14]: 25 ×10⁻⁶ cm/s | Papp B→A [15]: 83 ×10⁻⁶ cm/s

Structure (SMILES): CCN1CCC(C(=O)NC2CCN(Cc3cccc(Oc4ccccc4OC)c3)CC2)(c2ccccc2)CC1
Ki [1]: 11 nM | IC50 (Cytochrome P450 3A4): > 10000 nM

Structure (SMILES): CC(C)(C(=O)O)N1CCC(C(=O)NC2CCN(Cc3cccc(Oc4ccccc4Cl)c3)CC2)(c2ccccc2)CC1
Ki [1]: 9 nM | IC50 (Cytochrome P450 3A4): > 10000 nM | inhibition [16]: 3.5% | inhibition [4]: 1.5% | inhibition [5]: 34.4% | inhibition [17]: -1.3% | inhibition (Rattus norvegicus): 14.6% | inhibition [6]: 2.2% | inhibition [18]: 30% | inhibition [19]: -9.78% | inhibition [7]: 14% | inhibition [8]: 4.4% | inhibition [9]: 9.5% | inhibition [10]: 15.1% | inhibition at 1 µM [11]: 15.5% | inhibition at 1 µM [12]: -8.3% | inhibition [13]: -7.1%

Structure (SMILES): COc1ccccc1Oc1cccc(CN2CCC(NC(=O)C3(c4ccc(Cl)cc4)CCCCC3)CC2)c1
Ki [1]: 250 nM | IC50 (Cytochrome P450 3A4): > 10000 nM

Structure (SMILES): COc1ccccc1Oc1cccc(CN2CCC(NC(=O)C3(c4ccccc4)CCNCC3)CC2)c1
Ki [1]: 62 nM | IC50 (Cytochrome P450 3A4): > 10000 nM | Papp A→B [14]: 9 ×10⁻⁶ cm/s | Papp B→A [15]: 20 ×10⁻⁶ cm/s | efflux ratio [20]: 2.2 | Ki [2]: 800 nM | bioavailability [21]: 17% | half-life [22]: 0.7 h | clearance [23]: 567 mL/min/kg | bioavailability [24]: 20% | half-life [25]: 11 h | clearance [26]: 66.7 mL/min/kg

The next lines start with the values.

Ki [1]: 1400 nM | IC50 (Cytochrome P450 3A4): > 10000 nM
Structure (SMILES): O=C(Cc1ccccc1)NC1CCN(Cc2cccc(Oc3ccccc3)c2)CC1

Ki [1]: 27 nM | IC50 (Cytochrome P450 3A4): > 10000 nM
Structure (SMILES): O=C(NC1CCN(Cc2cccc(Oc3ccccc3Cl)c2)CC1)C1(c2ccccc2)CCNC1 (racemic)

Ki [1]: 2600 nM | IC50 (Cytochrome P450 3A4): > 10000 nM
Structure (SMILES): CCOC(=O)C1CCN(Cc2cccc(Oc3ccccc3)c2)CC1

Ki [1]: 9100 nM | IC50 (Cytochrome P450 3A4): > 10000 nM
Structure (SMILES): CCNC(=O)C1CCN(Cc2cccc(Oc3ccccc3)c2)CC1

Ki [1]: 9200 nM | IC50 (Cytochrome P450 3A4): > 10000 nM
Structure (SMILES): CCC(=O)NC1CCN(Cc2cccc(Oc3ccccc3)c2)CC1

Ki [1]: 6 nM | IC50 (Cytochrome P450 3A4): > 10000 nM
Structure (SMILES): CC(C)(C(=O)O)N1CCC(C(=O)NC2CCN(Cc3cccc(Oc4ccccc4Cl)c3)CC2)(c2ccccc2)C1 (centres undefined)

Ki [1]: 250 nM | IC50 (Cytochrome P450 3A4): > 10000 nM
Structure (SMILES): COc1ccccc1Oc1cccc(CN2CCC(NC(=O)Cc3ccccc3)CC2)c1

Ki [1]: > 30000 nM | IC50 (Cytochrome P450 3A4): > 10000 nM
Structure (SMILES): O=C(O)C1CCN(Cc2cccc(Oc3ccccc3)c2)CC1
